How the values were obtained:
Type in all cases: physicochemical
[1] = Polymorph screening of Compound A citrate salt, form conversion (XRPD, DSC/TGA, DVS); conditions: drying of wet cake (Form B); presence of water (Form C)
[2] = Slurry and solvent evaporation polymorph experiments of Compound A citrate salt (Table 9); conditions: upon drying
Method: Based on the approximate solubility data of Compound A citrate salt, 18 polymorph experiments were started at RT with stirring (Table 9). Wet cakes from the slurry experiments were analyzed after 5 days of stirring. Wet cake XRPD patterns were checked and materials showing no pattern change were heated from RT to 50° C.
Procedure • 1) Slurry at RT: ˜35 mg citrate salt was slurried in different solvents in 4 mL vials using a magnetic stirrer at RT. The solids in slurry were characterized by XRPD after 3-5 days. • 2) Slurry at 50° C.: Slurries with no change in wet cake XRPD pattern when compared to starting material were heated from RT to 50° C. Samples were analyzed after 2-3 days of stirring.
Wet cake samples were isolated and kept at 25° C. for 2 h for drying. After drying, samples were analyzed by XRPD.

[3] = Single crystal structure, solvate exchange under ambient conditions; conditions: after exposure to ambient conditions, analyzed at 273 K
Method: Plate-like crystals (FIG. 9) were grown by recrystallization from methanol of Compound A monocitrate monomethanolate by evaporation (prepared from methanol/water 90:10 v/v).

[4] = Form C characterization and relative stability of the forms; conditions: ambient conditions
Text: Moreover, HNMR studies validated a 1:1 stoichiometry between the freebase and acid.

SMILES: CCN(C(=O)c1cc(F)ccc1Oc1cncnc1N1CC2(CCN(C[C@H]3CC[C@H](NS(=O)(=O)CC)CC3)CC2)C1)C(C)C.CO.O=C(O)CC(O)(CC(=O)O)C(=O)O [Form B]
- stability of polymorphic form / conversion [1]: unstable form and converts to Form A upon drying
- Form conversion [2]: converts to Form A upon drying
- Solvate exchange of single crystal [3]: transformed into a monohydrate
- Form conversion [4]: transitions to Form A
